Values quoted from earlier work, collected in paper PMC9627400 (ACS applied materials & interfaces, 2022).

Molecular target: IL-6
Conditions: read-out: affinity; anti-IL-6 monoclonal antibody; cited from earlier work

Which Kd does the source give for “siltuximab: an FDA-approved anti-IL-6 monoclonal antibody” here?
Its Kd is 11.7 nM.
